Measurements: patent publication US4451457A, “Cyclodextrin and method for promoting the proliferation of intestinal bifidobacteria” (Kureha Kagaku Kogyo Kabushiki Kaisha, priority 1981, dated 1984)

Columns and labels:
Bacteroides sp. = test: Viable count of Bacteroides sp. in feces of mice; type: in vivo, female C3H/He mice; conditions: for Rate of proliferation (B/A), Bacteroides sp. / Viable count 7 days after (B) administration, Bacteroides sp.: 2.0 g/kg/day; for Rate of proliferation (B/A), Bacteroides sp.: 7 days after / before; for Viable count 7 days after (B) administration, Bacteroides sp. / Viable count before (A) administration, Bacteroides sp.: average of five mice
Procedure: (§1) Each solution or suspension was administered to female C3H/He mice at 8th week after birth, one group consisting of 5 animals and the number of groups being four, the dosage being 2.0 g of cyclodextrin/kg of body weight/day, continuously for 2 weeks.
(§2) Before and 7 days after the administration, feces of each mouse was collected, and after diluting the collected feces with 100 times by weight of an anaerobic phosphate buffer and grinding the diluted feces, each 0.1 ml of the ground feces was inoculated on each culture medium (refer to Table 3) for the specified bacterial species, and the thus inoculated culture media were incubated at 37° C. for one to five days under the aerobic conditions or anaerobic conditions (according to the anaerobic grove box method).
NBGT agar same as above
(§3) After the incubation was over, the number of bifidobacteria, Escherichia coli, Lactobacilli and Bacteroides sp. in the culture medium was counted. The results are shown in Tables 4 to 7, the counts being the average of five mice.

Lactobacilli = test: Viable count of Lactobacilli in feces of mice; type: in vivo, female C3H/He mice; conditions: for Rate of proliferation (B/A), Lactobacilli / Viable count 7 days after (B) administration, Lactobacilli: 2.0 g/kg/day; for Rate of proliferation (B/A), Lactobacilli: 7 days after / before; for Viable count 7 days after (B) administration, Lactobacilli / Viable count before (A) administration, Lactobacilli: average of five mice
Procedure: as §1, §2, §3

bifidobacteria = test: Intestinal proliferation of bifidobacteria in mice, viable count in feces; type: in vivo, female C3H/He mice; conditions: for Rate of proliferation (B/A), bifidobacteria / Viable count 7 days after (B) administration, bifidobacteria: 2.0 g/kg/day; for Rate of proliferation (B/A), bifidobacteria: 7 days after / before; for Viable count 7 days after (B) administration, bifidobacteria / Viable count before (A) administration, bifidobacteria: average of five mice
Procedure: The activity of cyclodextrin in promoting the intestinal proliferation of bifidobacteria was recognized by the results of test as described below. Namely, cyclodextrin was administered orally to test animals such as mouse at the dose of 2 g/kg of body weight per day for 2 weeks, and the number of viable intestinal bacteria such as bifidobacteria, Escherichia coli, Lactobacilli and Bacteroides sp. in the feces of the test animal seven days after the administration were counted by the conventional method. […] Namely, when the bifidobacteria-proliferating agent of the invention is administered to the living body, it is possible to proliferate only bifidobacteria in the intestine of the living body without disturbing the intraintestinal bacterial flora.
as §1, §2
BS agar anaerobic, 37° C., 5 days
as §3

Escherichia coli = test: Viable count of Escherichia coli in feces of mice; type: in vivo, female C3H/He mice; conditions: for Rate of proliferation (B/A), Escherichia coli / Viable count 7 days after (B) administration, Escherichia coli: 2.0 g/kg/day; for Rate of proliferation (B/A), Escherichia coli: 7 days after / before; for Viable count 7 days after (B) administration, Escherichia coli / Viable count before (A) administration, Escherichia coli: average of five mice
Procedure: as §1, §2
DHL agar aerobic, 37° C., one day
as §3

rat = test: Acute toxicity, LD50 in rats; type: in vivo; conditions: female rat
Procedure: (§4) Each cyclodextrin (α-, β- and γ-) was administered via the following routes to rats and mice and LD50 was measured.

[1] = Acute toxicity, LD50 in rats; type: in vivo, rat; conditions: in vivo, male rat
Procedure: as §4

[2] = Acute toxicity, LD50 in mice; type: in vivo, Mouse; conditions: in vivo, male mouse
Procedure: as §4

Mouse = test: Acute toxicity, LD50 in mice; type: in vivo; conditions: female mouse
Procedure: as §4

Row | Molecule | Rate of proliferation (B/A), Bacteroides sp. (Bacteroides sp.) | Viable count 7 days after (B) administration, Bacteroides sp. (Bacteroides sp.) | Viable count before (A) administration, Bacteroides sp. (Bacteroides sp.) | Rate of proliferation (B/A), Lactobacilli (Lactobacilli) | Viable count 7 days after (B) administration, Lactobacilli (Lactobacilli) | Viable count before (A) administration, Lactobacilli (Lactobacilli) | Rate of proliferation (B/A), bifidobacteria (bifidobacteria) | Viable count 7 days after (B) administration, bifidobacteria (bifidobacteria) | Viable count before (A) administration, bifidobacteria (bifidobacteria) | Rate of proliferation (B/A), Escherichia coli (Escherichia coli) | Viable count 7 days after (B) administration, Escherichia coli (Escherichia coli) | Viable count before (A) administration, Escherichia coli (Escherichia coli) | LD50 (rat; intraperitoneal) [mg/kg] | LD50 (rat; oral) [mg/kg] | LD50 (rat; subcutaneous) [mg/kg] | LD50 ([1]; ip, intraperitoneal) [mg/kg] | LD50 ([1]; sc, subcutaneous) [mg/kg] | LD50 ([1]; oral) [mg/kg] | LD50 ([2]; ip, intraperitoneal) [mg/kg] | LD50 ([2]; sc, subcutaneous) [mg/kg] | further results
1 | dextrin [reference compound] | 2.50 | 8.0 × 10^8 per g of the feces | 3.2 × 10^8 per g of the feces | 1.20 | 6.0 × 10^8 per g of the feces | 5.0 × 10^8 per g of the feces | 0.70 | 1.6 × 10^5 per g of the feces | 2.3 × 10^5 per g of the feces | 0.80 | 7.2 × 10^6 per g of the feces | 9.0 × 10^6 per g of the feces |  |  |  |  |  |  |  |  | activity to the proliferation of bifidobacteria, in words (bifidobacteria; mouse, oral, Table 7): did not exhibit such an activity
2 | OC[C@H]1O[C@@H]2O[C@H]3[C@H](O)[C@@H](O)[C@@H](O[C@H]4[C@H](O)[C@@H](O)[C@@H](O[C@H]5[C@H](O)[C@@H](O)[C@@H](O[C@H]6[C@H](O)[C@@H](O)[C@@H](O[C@H]7[C@H](O)[C@@H](O)[C@@H](O[C@H]8[C@H](O)[C@@H](O)[C@@H](O[C@H]9[C@H](O)[C@@H](O)[C@@H](O[C@H]1[C@H](O)[C@H]2O)O[C@@H]9CO)O[C@@H]8CO)O[C@@H]7CO)O[C@@H]6CO)O[C@@H]5CO)O[C@@H]4CO)O[C@@H]3CO [γ-cyclodextrin] | 3.00 | 3.0 × 10^8 per g of the feces | 1.0 × 10^8 per g of the feces | 0.78 | 7.0 × 10^8 per g of the feces | 9.0 × 10^8 per g of the feces | 90 | 1.8 × 10^6 per g of the feces | 2.0 × 10^4 per g of the feces | 0.93 | 7.0 × 10^6 per g of the feces | 7.5 × 10^6 per g of the feces | > 1200 | > 12000 | > 1500 | > 1200 | > 1500 | > 12000 | > 900 | > 900 | LD50 ([2]; oral): > 12500 mg/kg; LD50 (Mouse; intraperitoneal): > 900 mg/kg; LD50 (Mouse; oral): > 12500 mg/kg; LD50 (Mouse; subcutaneous): > 900 mg/kg
3 | OC[C@H]1O[C@@H]2O[C@H]3[C@H](O)[C@@H](O)[C@@H](O[C@H]4[C@H](O)[C@@H](O)[C@@H](O[C@H]5[C@H](O)[C@@H](O)[C@@H](O[C@H]6[C@H](O)[C@@H](O)[C@@H](O[C@H]7[C@H](O)[C@@H](O)[C@@H](O[C@H]8[C@H](O)[C@@H](O)[C@@H](O[C@H]1[C@H](O)[C@H]2O)O[C@@H]8CO)O[C@@H]7CO)O[C@@H]6CO)O[C@@H]5CO)O[C@@H]4CO)O[C@@H]3CO [β-cyclodextrin] | 1.06 | 3.7 × 10^8 per g of the feces | 3.5 × 10^8 per g of the feces | 1.47 | 2.2 × 10^9 per g of the feces | 1.5 × 10^9 per g of the feces | 1385 | 1.8 × 10^8 per g of the feces | 1.3 × 10^5 per g of the feces | 1.45 | 5.8 × 10^6 per g of the feces | 4.0 × 10^6 per g of the feces | > 1200 | > 12000 | > 1500 | > 1200 | > 1500 | > 12000 | > 900 | > 900 | LD50 ([2]; oral): > 12500 mg/kg; LD50 (Mouse; intraperitoneal): > 900 mg/kg; LD50 (Mouse; oral): > 12500 mg/kg; LD50 (Mouse; subcutaneous): > 900 mg/kg
4 | OC[C@H]1O[C@@H]2O[C@H]3[C@H](O)[C@@H](O)[C@@H](O[C@H]4[C@H](O)[C@@H](O)[C@@H](O[C@H]5[C@H](O)[C@@H](O)[C@@H](O[C@H]6[C@H](O)[C@@H](O)[C@@H](O[C@H]7[C@H](O)[C@@H](O)[C@@H](O[C@H]1[C@H](O)[C@H]2O)O[C@@H]7CO)O[C@@H]6CO)O[C@@H]5CO)O[C@@H]4CO)O[C@@H]3CO [α-cyclodextrin] |  |  |  |  |  |  |  |  |  |  |  |  | > 1200 | > 12000 | > 1500 | > 1200 | > 1500 | > 12000 | > 900 | > 900 | LD50 ([2]; oral): > 12500 mg/kg; LD50 (Mouse; intraperitoneal): > 900 mg/kg; LD50 (Mouse; oral): > 12500 mg/kg; LD50 (Mouse; subcutaneous): > 900 mg/kg
